Results on two compounds are retold here after article PMC8860565, “Molecular Insights into How the Dimetal Center in Dihydropyrimidinase Can Bind the Thymine Antagonist 5-Aminouracil: A Different Binding Mode from the Anticancer Drug 5-Fluorouracil” (Bioinorganic Chemistry and Applications, 2022).

Read-outs that look alike come from different tables or passages of the source.

Usually Kd stands for the constant that tells how readily two partners part at equilibrium.

Assay [1] deals with T1, Pseudomonas aeruginosa DHPase (PaDHPase) (Pseudomonas aeruginosa, UniProt Q9I676).
T1 construct: made in house; host or cells: Escherichia coli BL21 (DE3)
T1 sequence (Q9I676 whole entry): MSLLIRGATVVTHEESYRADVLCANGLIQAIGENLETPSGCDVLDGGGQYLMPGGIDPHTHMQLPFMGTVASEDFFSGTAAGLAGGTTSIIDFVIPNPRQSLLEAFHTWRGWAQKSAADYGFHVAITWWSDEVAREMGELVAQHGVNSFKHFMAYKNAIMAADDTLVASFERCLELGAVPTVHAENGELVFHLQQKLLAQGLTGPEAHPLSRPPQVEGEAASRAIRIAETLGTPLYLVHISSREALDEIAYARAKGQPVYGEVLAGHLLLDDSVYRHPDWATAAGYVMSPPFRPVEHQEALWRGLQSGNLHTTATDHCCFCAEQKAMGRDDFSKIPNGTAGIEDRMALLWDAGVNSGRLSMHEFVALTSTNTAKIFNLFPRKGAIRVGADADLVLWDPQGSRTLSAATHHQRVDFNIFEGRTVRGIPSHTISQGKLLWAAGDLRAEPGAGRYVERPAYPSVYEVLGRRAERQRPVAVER
In words: Fluorescence quenching titration of wild-type PaDHPase. The assay is classed as binding. The protocol:
(§1) Through the fluorescence quenching analysis, the Kd value of the purified PaDHPase was determined. An aliquot of 5-AU was added into the solution containing PaDHPase (0.8 μM) and 50 mM HEPES at pH 7.0. The decrease in the intrinsic fluorescence of PaDHPase was measured at 336 nm upon excitation at 279 nm and 25°C with a spectrofluorimeter (Hitachi F-2700; Hitachi High-Technologies, Japan). The Kd was obtained using the equation: ΔF = ΔFmax − Kd(ΔF/[5-AU]).
Prior to this study, whether 5-AU could bind to DHPase remained unknown. To confirm if PaDHPase is capable of binding 5-AU, we used the fluorescence quenching method to determine the binding ability of PaDHPase (Figure 4). Quenching is a complex formation process that decreases the fluorescence intensity of protein. […] When 5-AU was titrated into the PaDHPase solution, the intrinsic fluorescence of the protein was progressively quenched. Upon the addition of 300 μM 5-AU, the intrinsic fluorescence of PaDHPase was quenched by 87.3%.
(§2) Figure 4 Fluorescence titration of PaDHPase with 5-AU. (a) The fluorescence emission spectra of PaDHPase with 5-AU of different concentrations (0–300 μM). The decrease in intrinsic fluorescence of protein was measured at 336 nm upon excitation at 279 nm with a spectrofluorimeter. […] (b) The fluorescence emission spectra of PaDHPase-Y155A with 5-AU of different concentrations (0–300 μM). (c) The fluorescence emission spectra of PaDHPase-S289A with 5-AU. (d) The fluorescence emission spectra of PaDHPase-N337A with 5-AU. (e) The fluorescence emission spectra of PaDHPase-C318A with 5-AU. (f) The fluorescence emission spectra of Znα-PaDHPase with 5-AU. (g) An aliquot amount of 5-AU was added to the enzyme solution for determining the Kd. The Kd was obtained by the equation: ΔF = ΔFmax − Kd(ΔF/[5-AU]). Data points are an average of 2–3 determinations within 10% error.

Another assay has as its target T2, PaDHPase-Y155A (Pseudomonas aeruginosa, UniProt Q9I676, Y155A).
T2 construct: made in house; host or cells: Escherichia coli BL21 (DE3) (stated for the wild type; mutants purified by the same protocol)
In words: Fluorescence quenching titration of PaDHPase-Y155A mutant. The assay is classed as binding. From the text:
(§3) The PaDHPase mutants were generated according to the QuikChange Site-Directed Mutagenesis kit protocol (Stratagene; La Jolla, CA, USA). The wild-type plasmid pET21b-PaDHPase was used as a template. The presence of the mutation was verified by DNA sequencing in each construct. The recombinant mutant proteins were purified using the protocol for the wild-type PaDHPase by Ni^2+-affinity chromatography (Table 1).
Through the fluorescence quenching analysis, the Kd value of the purified PaDHPase was determined. An aliquot of 5-AU was added into the solution containing PaDHPase (0.8 μM) and 50 mM HEPES at pH 7.0. The decrease in the intrinsic fluorescence of PaDHPase was measured at 336 nm upon excitation at 279 nm and 25°C with a spectrofluorimeter (Hitachi F-2700; Hitachi High-Technologies, Japan). […]
Figure 4 Fluorescence titration of PaDHPase with 5-AU. (a) The fluorescence emission spectra of PaDHPase with 5-AU of different concentrations (0–300 μM). The decrease in intrinsic fluorescence of protein was measured at 336 nm upon excitation at 279 nm with a spectrofluorimeter. […] (b) The fluorescence emission spectra of PaDHPase-Y155A with 5-AU of different concentrations (0–300 μM). (c) The fluorescence emission spectra of PaDHPase-S289A with 5-AU. (d) The fluorescence emission spectra of PaDHPase-N337A with 5-AU. (e) The fluorescence emission spectra of PaDHPase-C318A with 5-AU. […]

A further assay has as its target T3, PaDHPase-S289A (Pseudomonas aeruginosa, UniProt Q9I676, S289A).
T3 construct: made in house; host or cells: Escherichia coli BL21 (DE3) (stated for the wild type; mutants purified by the same protocol)
In words: Fluorescence quenching titration of PaDHPase-S289A mutant. The assay is classed as binding.
Description: as §3, §1, §2
(§4) 5-AU interacts with the main chains of residues Ser289 and Asn337 and the side chain of residue Tyr155. To investigate the contribution of individual amino acid residues to 5-AU binding, alanine substitution mutants (Table 2) were constructed and analyzed by fluorescence quenching (Figures 4(b)–4(d)).

For the next assay, the target named is T4, PaDHPase-N337A (Pseudomonas aeruginosa, UniProt Q9I676, N337A).
T4 construct: made in house; host or cells: Escherichia coli BL21 (DE3) (stated for the wild type; mutants purified by the same protocol)
T4 sequence (Q9I676 whole entry N337A): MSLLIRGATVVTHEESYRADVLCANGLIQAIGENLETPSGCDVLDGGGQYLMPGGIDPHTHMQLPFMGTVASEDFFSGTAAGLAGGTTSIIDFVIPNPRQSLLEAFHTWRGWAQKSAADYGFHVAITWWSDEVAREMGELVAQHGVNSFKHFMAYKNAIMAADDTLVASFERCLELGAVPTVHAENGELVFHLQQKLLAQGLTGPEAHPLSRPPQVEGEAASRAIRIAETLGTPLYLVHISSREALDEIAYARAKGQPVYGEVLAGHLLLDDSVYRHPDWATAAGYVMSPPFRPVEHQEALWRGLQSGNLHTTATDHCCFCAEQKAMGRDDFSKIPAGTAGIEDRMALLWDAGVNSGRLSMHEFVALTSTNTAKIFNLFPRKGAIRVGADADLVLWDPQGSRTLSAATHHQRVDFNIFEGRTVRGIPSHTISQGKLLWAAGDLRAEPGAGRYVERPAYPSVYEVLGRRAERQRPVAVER
In words: Fluorescence quenching titration of PaDHPase-N337A mutant. The assay is classed as binding.
Description: as §3, §1, §2, §4

The target of a further assay is T5, PaDHPase-C318A (Pseudomonas aeruginosa, UniProt Q9I676, C318A).
T5 construct: made in house; host or cells: Escherichia coli BL21 (DE3) (stated for the wild type; mutants purified by the same protocol)
T5 sequence (Q9I676 whole entry C318A): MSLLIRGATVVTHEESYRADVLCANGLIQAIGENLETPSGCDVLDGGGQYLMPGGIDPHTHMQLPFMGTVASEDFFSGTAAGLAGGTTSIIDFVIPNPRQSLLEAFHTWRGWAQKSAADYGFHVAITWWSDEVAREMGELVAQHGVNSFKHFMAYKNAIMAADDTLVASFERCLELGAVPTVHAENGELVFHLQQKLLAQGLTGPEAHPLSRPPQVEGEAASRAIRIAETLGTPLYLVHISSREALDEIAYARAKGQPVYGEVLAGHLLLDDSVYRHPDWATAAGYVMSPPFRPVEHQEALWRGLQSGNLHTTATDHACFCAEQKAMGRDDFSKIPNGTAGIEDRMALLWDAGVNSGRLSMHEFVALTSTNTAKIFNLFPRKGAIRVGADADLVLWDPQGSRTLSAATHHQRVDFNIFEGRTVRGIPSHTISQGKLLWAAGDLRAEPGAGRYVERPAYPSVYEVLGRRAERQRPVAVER
In words: Fluorescence quenching titration of PaDHPase-C318A mutant. In kind it is binding.
Description: as §3, §1, §2
Structurally, Cys318 is involved in 5-FU [44] but not 5-AU. For comparison, the C318A mutant was also analyzed by fluorescence quenching (Figure 4(e)). […] The abilities of the wild-type PaDHPase and the C318A mutant to bind 5-AU are approximately equal. Thus, Cys318 is not essential for 5-AU binding.

The target of assay [2] is T6, Znα-PaDHPase (mono-Zn PaDHPase) (Pseudomonas aeruginosa, UniProt Q9I676).
T6 construct: made in house; host or cells: Escherichia coli BL21 (DE3)
T6 sequence (Q9I676 whole entry): as the sequence (Q9I676 whole entry) above
In words: Fluorescence quenching titration of mono-Zn PaDHPase. In kind it is binding. As to the method: The mono-Zn PaDHPase was prepared using the protocol described previously. Purified PaDHPase was dialyzed against a chelating buffer (50 mM MES, 50 mM EDTA, and 15 mM 8-HQSA, pH 6.5; Buffer B) at room temperature for 3 days. The resultant enzyme solution was then dialyzed against Buffer A.
as §1, §2
To confirm the role of Znβ in 5-AU binding and to compare the binding contribution with other mutant proteins (Table 3), we produced mono-Zn PaDHPase (Znα-PaDHPase) for binding analysis. […] The binding of 5-AU to Znα-PaDHPase was also analyzed by the fluorescence quenching method (Figure 4(f)). Upon the addition of 300 μM 5-AU, the intrinsic fluorescence of Znα-PaDHPase was quenched by 49.3%. The Kd value of Znα-PaDHPase for 5-AU binding was calculated to be 281.5 ± 9.0 μM from the titration curve (Figure 4(g)). Based on the Kd values, the strength of complex formation with 5-AU followed the following order: the wild-type enzyme ≈ C318A > N337A > Y155A ≈ S289A > Znα-PaDHPase (Table 3).

Assay [3] has as its system biphasic interphase-mitotic (IM) cells. Set-up: method as in PMID 32328702. To be noted: cited from earlier work.
Assay [4] addresses T1, Pseudomonas aeruginosa DHPase (PaDHPase). To be noted: read-out: Kd value of PaDHPase bound to 5-FU; wild-type PaDHPase ref 44; cited from earlier work.

T3 sequence (Q9I676 whole entry S289A): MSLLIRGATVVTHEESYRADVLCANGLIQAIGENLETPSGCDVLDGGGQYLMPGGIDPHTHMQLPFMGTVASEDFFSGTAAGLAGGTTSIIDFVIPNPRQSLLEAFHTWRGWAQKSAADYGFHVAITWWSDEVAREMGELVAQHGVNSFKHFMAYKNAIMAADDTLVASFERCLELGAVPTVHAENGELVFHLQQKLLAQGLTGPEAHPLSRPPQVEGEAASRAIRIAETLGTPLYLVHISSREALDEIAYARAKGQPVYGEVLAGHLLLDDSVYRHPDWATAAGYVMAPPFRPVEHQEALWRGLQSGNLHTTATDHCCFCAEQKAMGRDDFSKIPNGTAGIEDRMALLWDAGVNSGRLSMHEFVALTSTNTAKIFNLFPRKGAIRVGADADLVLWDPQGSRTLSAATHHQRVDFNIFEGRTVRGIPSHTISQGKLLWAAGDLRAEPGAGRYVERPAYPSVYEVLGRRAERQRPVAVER
T2 sequence (Q9I676 whole entry Y155A): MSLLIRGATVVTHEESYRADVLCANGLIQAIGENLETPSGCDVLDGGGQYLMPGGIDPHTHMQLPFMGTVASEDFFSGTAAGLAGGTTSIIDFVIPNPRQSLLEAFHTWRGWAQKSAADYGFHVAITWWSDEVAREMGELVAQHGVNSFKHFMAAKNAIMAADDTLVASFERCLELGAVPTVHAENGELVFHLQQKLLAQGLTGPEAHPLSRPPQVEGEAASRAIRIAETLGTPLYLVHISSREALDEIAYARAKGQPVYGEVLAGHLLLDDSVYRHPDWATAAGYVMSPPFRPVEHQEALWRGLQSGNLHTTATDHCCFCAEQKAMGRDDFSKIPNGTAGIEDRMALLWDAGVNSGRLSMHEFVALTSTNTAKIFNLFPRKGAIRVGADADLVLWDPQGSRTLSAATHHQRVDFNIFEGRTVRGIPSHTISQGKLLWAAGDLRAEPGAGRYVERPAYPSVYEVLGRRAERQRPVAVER

On to `Nc1c[nH]c(=O)[nH]c1=O` [5-AU, 5-aminouracil], for which the Kd was 97.7 ± 2 µM in assay [1]; 247 ± 4 µM at PaDHPase-Y155A; 256 ± 3.2 µM at PaDHPase-S289A; 192 ± 8 µM on PaDHPase-N337A; 103 ± 3.1 µM on PaDHPase-C318A; 281 ± 9 µM in assay [2]. In addition, the “Quenching (%) of intrinsic fluorescence” value in assay [1] (wild-type PaDHPase, 300 μM 5-AU, emission 336 nm, excitation 279 nm) is listed as 87.3%; in assay [2] (Znα-PaDHPase (mono-Zn), 300 μM 5-AU) it was 49.3%. The λ max result is recorded as “From 336.5 to 343” in assay [1] (wild-type PaDHPase, emission maximum before and after adding 5-AU); “From 336.5 to 342” on PaDHPase-Y155A (PaDHPase-Y155A, emission maximum before and after adding 5-AU); “From 337 to 339” on PaDHPase-S289A (PaDHPase-S289A, emission maximum before and after adding 5-AU); “From 336 to 339.5” on PaDHPase-N337A (PaDHPase-N337A, emission maximum before and after adding 5-AU); “From 336 to 342” on PaDHPase-C318A (PaDHPase-C318A, emission maximum before and after adding 5-AU); “From 335 to 336.5” in assay [2] (Znα-PaDHPase, emission maximum before and after adding 5-AU). For the same compound, the λ em shift was roughly 6.5 nm in assay [1] (wild-type PaDHPase, red shift on adding 5-AU); 2.0 nm on PaDHPase-S289A (PaDHPase-S289A); 3.5 nm on PaDHPase-N337A (PaDHPase-N337A); 6.0 nm on PaDHPase-C318A (PaDHPase-C318A); 1.5 nm in assay [2] (Znα-PaDHPase). For the same compound, the “induction of biphasic interphase-mitotic (IM) cells” value in assay [3] is “significantly induce biphasic interphase-mitotic (IM) cells”.
For `O=c1[nH]cc(F)c(=O)[nH]1` [5-FU, 5-fluorouracil], the Kd in assay [4] is 133 ± 8.5 µM. In assay [3], the “induction of biphasic interphase-mitotic (IM) cells” value is “no induction of IM cells was detected”.
